{
  "source": "patent US20220313629A1",
  "about": "“TRANSIENT POTENTIAL MELASTATIN 8 (TRPM8) ANTAGONISTS AND RELATED METHODS” (MARSHALL UNIVERSITY RESEARCH CORPORATION, priority 2019, published 2022)",
  "key": {"[1]": {"experiment": "Stability in liver microsomes", "assay_type": "in vitro ADME", "details": "mouse liver microsomes; CLint = k/P", "method": "Stability in liver microsomes. Male CD-1 mouse liver microsomes (Lot#1710069) were purchased from XenoTech. The reaction mixture, minus NADPH, was prepared as described below. Compound 14 was added into the reaction mixture at a final concentration of 1 μM. The control compound, testosterone, was run simultaneously with Compound 14 in a separate reaction. An aliquot of the reaction mixture (without cofactor) was equilibrated in a shaking water bath at 37° C. for 3 minutes. The reaction was initiated by the addition of the cofactor, and the mixture was incubated in a shaking water bath at 37° C. Aliquots (100 μL) were withdrawn at 0, 10, 20, 30, and 60 minutes. Compound 14 and testosterone samples were immediately combined with 400 μL of ice-cold 50/50 acetonitrile (ACN)/H2O containing 0.1% formic acid and internal standard to terminate the reaction. The samples were then mixed and centrifuged to precipitate proteins. All samples were assayed by LC-MS/MS using electrospray ionization. […] are compared to the PARR at time 0 to determine the percent remaining at each time point. Half-lives and intrinsic clearance were calculated using GraphPad software, fitting to a single-phase exponential decay equation.\nIn vitro metabolic stability. Compound 14 was evaluated for metabolic stability in mouse liver microsomes by Absorption Systems (Exton, Pa.), by determining the percent remaining at 0, 10, 20, 30 and 60 minutes when incubated with mouse liver microsomes in the presence of NADPH. The half-life (t1/2) and in vitro intrinsic clearance (CLint) of Compound 14 was calculated, in addition to the control (testosterone)."}, "[2]": {"molecular_target": "T1, TRPM8 (Homo sapiens, UniProt Q7Z2W7)", "details": "literature value; read-out: IC50 in whole-cell patch-clamp assay (reported); cited from earlier work"}, "[3]": {"molecular_target": "T1, TRPM8", "details": "cited from earlier work"}, "[4]": {"test_system": "rat and human TRPM8", "details": "literature; read-out: IC50 values against menthol, icilin and cold activation at rat and human TRPM8; cited from earlier work"}, "[5]": {"molecular_target": "human TRPV1 (Homo sapiens, UniProt Q8NER1)", "sequence (Q8NER1 whole entry)": "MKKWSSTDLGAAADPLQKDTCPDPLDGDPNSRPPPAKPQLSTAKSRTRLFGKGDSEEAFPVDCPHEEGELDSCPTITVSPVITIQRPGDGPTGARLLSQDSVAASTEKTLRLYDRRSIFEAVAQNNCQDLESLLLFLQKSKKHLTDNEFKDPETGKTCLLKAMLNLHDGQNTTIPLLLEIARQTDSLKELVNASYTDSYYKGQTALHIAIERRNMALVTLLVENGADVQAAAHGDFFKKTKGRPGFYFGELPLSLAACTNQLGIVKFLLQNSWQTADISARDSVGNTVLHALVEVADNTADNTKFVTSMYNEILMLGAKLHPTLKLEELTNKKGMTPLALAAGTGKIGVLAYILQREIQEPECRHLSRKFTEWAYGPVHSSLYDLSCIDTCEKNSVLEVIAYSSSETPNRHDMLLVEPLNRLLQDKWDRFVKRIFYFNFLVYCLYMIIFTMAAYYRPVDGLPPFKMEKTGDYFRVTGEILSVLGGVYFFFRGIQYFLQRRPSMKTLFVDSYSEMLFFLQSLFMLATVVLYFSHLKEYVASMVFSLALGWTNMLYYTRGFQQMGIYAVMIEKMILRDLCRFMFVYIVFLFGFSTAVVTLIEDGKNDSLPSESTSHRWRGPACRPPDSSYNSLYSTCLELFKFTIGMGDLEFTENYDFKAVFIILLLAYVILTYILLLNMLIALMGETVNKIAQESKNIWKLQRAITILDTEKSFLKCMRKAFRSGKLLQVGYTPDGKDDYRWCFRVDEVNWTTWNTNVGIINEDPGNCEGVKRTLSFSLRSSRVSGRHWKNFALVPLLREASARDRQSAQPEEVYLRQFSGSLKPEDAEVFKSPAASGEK", "experiment": "TRPV1 agonist and antagonist Ca2+ flux assay (FLIPR, Fluo-8) in HEK293 cells stably expressing human TRPV1", "assay_type": "cell-based", "details": "for effect on hTRPV1-mediated responses (intrinsic and antagonist activity): at concentrations 13- to 25-fold higher than hTRPM8 IC50; for hTRPV1 % Activation (n = 3): normalized to Emax of capsaicin (3 μM)"}, "[6]": {"molecular_target": "T2, human TRPA1 (Homo sapiens, UniProt O75762)", "T2 sequence (O75762 whole entry)": "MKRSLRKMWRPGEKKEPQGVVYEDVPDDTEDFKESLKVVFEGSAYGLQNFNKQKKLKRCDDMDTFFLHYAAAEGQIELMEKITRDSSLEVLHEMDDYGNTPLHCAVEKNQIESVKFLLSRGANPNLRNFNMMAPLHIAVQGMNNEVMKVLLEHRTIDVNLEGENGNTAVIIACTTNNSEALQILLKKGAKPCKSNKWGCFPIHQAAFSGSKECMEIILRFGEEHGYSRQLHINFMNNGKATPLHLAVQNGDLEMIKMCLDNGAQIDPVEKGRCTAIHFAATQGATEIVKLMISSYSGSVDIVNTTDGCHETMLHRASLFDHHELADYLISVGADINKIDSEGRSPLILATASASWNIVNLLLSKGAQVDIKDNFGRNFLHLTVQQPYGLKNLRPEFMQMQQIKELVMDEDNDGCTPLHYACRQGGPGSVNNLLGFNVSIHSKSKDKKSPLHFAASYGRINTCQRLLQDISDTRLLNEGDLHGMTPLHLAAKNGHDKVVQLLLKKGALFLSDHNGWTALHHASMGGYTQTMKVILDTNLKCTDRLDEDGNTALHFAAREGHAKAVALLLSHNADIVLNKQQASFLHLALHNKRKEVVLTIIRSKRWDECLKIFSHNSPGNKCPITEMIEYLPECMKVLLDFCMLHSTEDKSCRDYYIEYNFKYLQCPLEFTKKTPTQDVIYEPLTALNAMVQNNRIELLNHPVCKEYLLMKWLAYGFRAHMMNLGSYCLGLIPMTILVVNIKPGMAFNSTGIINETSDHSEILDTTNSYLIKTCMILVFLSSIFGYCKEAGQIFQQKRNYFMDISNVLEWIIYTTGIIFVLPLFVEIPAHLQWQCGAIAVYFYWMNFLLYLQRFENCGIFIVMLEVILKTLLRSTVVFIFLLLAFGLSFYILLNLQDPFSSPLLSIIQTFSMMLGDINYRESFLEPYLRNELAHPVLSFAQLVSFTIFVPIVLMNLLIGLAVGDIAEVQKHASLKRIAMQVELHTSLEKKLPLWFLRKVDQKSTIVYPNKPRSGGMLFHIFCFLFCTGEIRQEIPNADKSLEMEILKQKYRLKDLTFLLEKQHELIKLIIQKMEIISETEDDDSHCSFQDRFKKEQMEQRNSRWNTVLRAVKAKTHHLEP", "experiment": "TRPA1 agonist and antagonist Ca2+ flux assay (FLIPR, Fluo-8) in HEK293 cells stably expressing human TRPA1", "assay_type": "cell-based", "details": "for effect on hTRPA1-mediated responses (intrinsic and antagonist activity): at concentrations 13- to 25-fold higher than hTRPM8 IC50; for hTRPA1 % Activation (n = 3-5): normalized to Emax of AITC (300 μM); for % Activation Mean ± SEM (n = 5), TRPA1 antagonist data (Percentage Inhibition Normalized to EC80 Control): vs EC80 of AITC"}, "[7]": {"molecular_target": "T1, TRPM8", "experiment": "TRPM8 antagonist activity by Fura-2 Ca2+ imaging in HEK-293 cells stably expressing human TRPM8", "assay_type": "cell-based", "details": "for IC50: read-out: Functional Activity hTRPM8 potency IC50 ± SEM"}, "[8]": {"molecular_target": "T2, human TRPA1", "details": "vs. the effect of 80 μM AITC; read-out: IC50 at TRPA1 reported by Klionsky and colleagues; cited from earlier work"}, "[9]": {"molecular_target": "T1, TRPM8", "details": "different cell type (CHO vs HEK) or species (human versus mouse); read-out: previously-reported EC50 values; cited from earlier work"}, "[10]": {"molecular_target": "T1, TRPM8", "experiment": "TRPM8 agonist (intrinsic) activity by Fura-2 Ca2+ imaging in HEK-293 cells stably expressing human TRPM8", "assay_type": "cell-based", "details": "HEK-293 cells stably expressing hTRPM8; read-out: EC50 (agonist-evoked Ca2+ influx at hTRPM8)"}, "[11]": {"details": "HEK293, read-out: hTRPV1 % Inhibition (n = 3)"}, "[12]": {"details": "HEK293, read-out: hTRPA1 % Inhibition (n = 3)"}, "[13]": {"details": "inhibition of icilin (500 nM)-evoked Ca2+ entry, HEK-293 cells stably expressing hTRPM8, mean ± SEM, three independent experiments"}},
  "note": "“And” between values parts separate entries of the source, which are not always exact repeats. Equal entries are not always repeated. Where two headings read alike, the source gives them in different places.",
  "data": [
    {"compound": "C[C@]12CC[C@H]3[C@@H](CCC4=CC(=O)CC[C@@]43C)[C@@H]1CC[C@@H]2O", "note": "[Testosterone, reference compound]", "values": [
      {"measurement": "CLint (mL/min/mg protein)", "setting": "[1]", "value": 0.372, "unit": "mL/min/mg protein"}
    ]},
    {"compound": "COc1cc(CN(CCN)C(=O)OC(C)c2ccccc2)ccc1OCc1ccccc1", "note": "(stereo not drawn) [PBMC]", "values": [
      {"measurement": "IC50", "setting": "[2]", "value": "0.4 to 0.6", "unit": "nM"}
    ]},
    {"compound": "C[C@H](c1ccc(F)cc1)N(Cc1cccc(C(=O)O)c1)C(=O)c1cnc2ccccc2c1", "note": "[PF-05105679]", "values": [
      {"measurement": "IC50", "setting": "[3]; literature, read-out: IC50, inhibition of WS-12-mediated activation at human TRPM8", "value": "181 ± 7.21", "unit": "nM"},
      {"measurement": "IC50", "setting": "[3]; literature, read-out: IC50, inhibition of voltage-mediated activation at human TRPM8", "value": "103 ± 29.4", "unit": "nM"},
      {"measurement": "IC50", "setting": "[3]; literature, read-out: hTRPM8 IC50 (reported Ca2+ flux activity)", "value": 181, "unit": "nM"}
    ]},
    {"compound": "C[C@H](NC(=O)N1CCc2cccnc2[C@H]1c1ccc(C(F)(F)F)cc1)C(F)(F)F", "note": "[AMG2850]", "values": [
      {"measurement": "IC50", "setting": "[4]", "value": "7 to 156", "unit": "nM"}
    ]},
    {"compound": "O=C(NC12CC3CC(CC(C3)C1)C2)c1ccc(-c2ccccc2)cc1", "note": "[Compound 15, N-(adamantan-1-yl)-[1,1′-biphenyl]-4-carboxamide]", "values": [
      {"measurement": "inhibition at 0.03 µM", "setting": "[5]; [11]", "value": "-6 ± 5", "unit": "%"},
      {"measurement": "inhibition at 0.3 µM", "setting": "[5]; [11]", "value": "3 ± 4", "unit": "%"},
      {"measurement": "effect on hTRPV1-mediated responses (intrinsic and antagonist activity)", "setting": "[5]", "value": "do not affect"},
      {"measurement": "hTRPV1 % Activation (n = 3)", "setting": "[5]; tested at 30 nM", "value": "1.0 ± 0.2", "unit": "%"},
      {"measurement": "hTRPV1 % Activation (n = 3)", "setting": "[5]; tested at 300 nM", "value": "1 ± 2", "unit": "%"},
      {"measurement": "inhibition at 0.3 µM", "setting": "[6]; [12]", "value": "-7 ± 7", "unit": "%"},
      {"measurement": "effect on hTRPA1-mediated responses (intrinsic and antagonist activity)", "setting": "[6]", "value": "do not affect"},
      {"measurement": "hTRPA1 % Activation (n = 3-5)", "setting": "[6]; tested at 30 nM", "value": "−2.6 ± 0.5", "unit": "%"},
      {"measurement": "hTRPA1 % Activation (n = 3-5)", "setting": "[6]; tested at 300 nM", "value": "−1.5 ± 0.4", "unit": "%"},
      {"measurement": "IC50", "setting": "[7]; [13]", "value": "16 ± 1", "unit": "nM"}
    ]},
    {"compound": "N.N.N.N.N.N.N.N.N.N.N.N.N.N.[Cl-].[Cl-].[Cl-].[Cl-].[Cl-].[Cl-].[O-2].[O-2].[Ru+3].[Ru+3].[Ru+4]", "note": "[Ruthenium Red, reference compound]", "values": [
      {"measurement": "IC50", "setting": "[8]", "value": "29 ± 6", "unit": "nM"},
      {"measurement": "% Activation Mean ± SEM (n = 5), TRPA1 antagonist data (Percentage Inhibition Normalized to EC80 Control)", "setting": "[6]; 3 nM", "value": "−6.0 ± 1.2", "unit": "%"},
      {"measurement": "% Activation Mean ± SEM (n = 5), TRPA1 antagonist data (Percentage Inhibition Normalized to EC80 Control)", "setting": "[6]; 10 nM", "value": "1.9 ± 2.4", "unit": "%"},
      {"measurement": "% Activation Mean ± SEM (n = 5), TRPA1 antagonist data (Percentage Inhibition Normalized to EC80 Control)", "setting": "[6]; 30 nM", "value": "5.8 ± 4.6", "unit": "%"},
      {"measurement": "% Activation Mean ± SEM (n = 5), TRPA1 antagonist data (Percentage Inhibition Normalized to EC80 Control)", "setting": "[6]; 100 nM", "value": "15.7 ± 9.8", "unit": "%"},
      {"measurement": "% Activation Mean ± SEM (n = 5), TRPA1 antagonist data (Percentage Inhibition Normalized to EC80 Control)", "setting": "[6]; 300 nM", "value": "91.1 ± 2.9", "unit": "%"},
      {"measurement": "% Activation Mean ± SEM (n = 5), TRPA1 antagonist data (Percentage Inhibition Normalized to EC80 Control)", "setting": "[6]; 1,000 nM", "value": "100.9 ± 0.1", "unit": "%"},
      {"measurement": "% Activation Mean ± SEM (n = 5), TRPA1 antagonist data (Percentage Inhibition Normalized to EC80 Control)", "setting": "[6]; 3,000 nM", "value": "100.9 ± 0.7", "unit": "%"},
      {"measurement": "% Activation Mean ± SEM (n = 5), TRPA1 antagonist data (Percentage Inhibition Normalized to EC80 Control)", "setting": "[6]; 10,000 nM", "value": "100.8 ± 0.3", "unit": "%"},
      {"measurement": "IC50", "setting": "[6]; AITC 10 μM, read-out: IC50, blockade of AITC-activated hTRPA1 responses", "value": "162 ± 33", "unit": "nM"}
    ]},
    {"compound": "O=C(NC1CCC2CCCCC2C1)c1ccc(-c2ccccc2)cc1", "note": "(mixture of isomers) [Compound 10, N-(decahydronaphthalen-2-yl)-[1,1′-biphenyl]-4-carboxamide]", "values": [
      {"measurement": "inhibition at 0.01 µM", "setting": "[5]; [11]", "value": "-13 ± 4", "unit": "%"},
      {"measurement": "inhibition at 0.1 µM", "setting": "[5]; [11]", "value": "2 ± 3", "unit": "%"},
      {"measurement": "effect on hTRPV1-mediated responses (intrinsic and antagonist activity)", "setting": "[5]", "value": "does not activate or inhibit"},
      {"measurement": "hTRPV1 % Activation (n = 3)", "setting": "[5]; tested at 10 nM", "value": "2.4 ± 0.8", "unit": "%"},
      {"measurement": "hTRPV1 % Activation (n = 3)", "setting": "[5]; tested at 100 nM", "value": "2.3 ± 0.9", "unit": "%"},
      {"measurement": "inhibition at 0.01 µM", "setting": "[6]; [12]", "value": "-8 ± 3", "unit": "%"},
      {"measurement": "inhibition at 0.1 µM", "setting": "[6]; [12]", "value": "-1 ± 10", "unit": "%"},
      {"measurement": "effect on hTRPA1-mediated responses (intrinsic and antagonist activity)", "setting": "[6]", "value": "does not activate or inhibit"},
      {"measurement": "hTRPA1 % Activation (n = 3-5)", "setting": "[6]; tested at 10 nM", "value": "0.2 ± 0.4", "unit": "%"},
      {"measurement": "hTRPA1 % Activation (n = 3-5)", "setting": "[6]; tested at 100 nM", "value": "−1.1 ± 0.2", "unit": "%"},
      {"measurement": "enhancement of TRPM8 potency relative to Compound 8", "setting": "[7]; icilin Ca2+ assay", "value": "3,500 fold"},
      {"measurement": "higher potency than Compound 5 and Compound 7", "setting": "[7]; icilin Ca2+ assay", "value": 10, "unit": "fold"},
      {"measurement": "IC50", "setting": "[7]; [13]", "value": "6 ± 1", "unit": "nM"},
      {"measurement": "IC50", "setting": "[7]", "value": "≤ 10", "unit": "nM"}
    ]},
    {"compound": "O=C(O)c1ccc(S(=O)(=O)N(Cc2ccc(OC(F)(F)F)cc2)c2ncc(C(F)(F)F)cc2Cl)cc1", "note": "[RQ-00203078, reference compound]", "values": [
      {"measurement": "IC50", "setting": "[3]; HEK cells expressing hTRPM8, read-out: IC50 previously reported against 30 μM menthol-evoked Ca2+ influx", "value": "~8", "unit": "nM"},
      {"measurement": "reported potency at hTRPM8", "setting": "[3]; literature", "value": "< 10", "unit": "nM"},
      {"measurement": "IC50", "setting": "[7]; [13]", "value": "2.96 nM and 3 nM"}
    ]},
    {"compound": "O=C1NC(c2cccc([N+](=O)[O-])c2)=CCN1c1ccccc1O", "note": "[icilin, 3-(2-hydroxyphenyl)-6-(3-nitrophenyl)-3,4-dihydropyrimidin-2(1H)-one]", "values": [
      {"measurement": "EC50", "setting": "[9]", "value": "120 to 200", "unit": "nM"},
      {"measurement": "EC50", "setting": "[10]", "value": "~70 nM and 74 nM"}
    ]}
  ]
}
